Assay results as given in the NIST ThermoML archive (doi:10.1016/j.fluid.2013.10.029).

Experiments:
[1] = excess molar enthalpy (molar enthalpy of mixing); xn = mol fraction of the nth substance listed; settings: 298.15 K, 101 kPa, Liquid, isothermal titration calorimeter
[2] = xn = mol fraction of the nth substance listed; settings: 101.33 kPa, Liquid, Vibrating tube method

c1cc[nH]c1 [pyrrole] + c1ccccc1
[1]
Settings	excess molar enthalpy [kcal/mol]
x1 = 0.015	0.017
x1 = 0.03	0.0293
x1 = 0.0448	0.0406
x1 = 0.0597	0.0508
x1 = 0.0747	0.0604
x1 = 0.0896	0.0691
x1 = 0.1045	0.0773
x1 = 0.1193	0.0847
x1 = 0.1343	0.0917
x1 = 0.1493	0.0981
x1 = 0.1642	0.104
x1 = 0.1792	0.109
x1 = 0.1942	0.115
x1 = 0.2092	0.119
x1 = 0.2242	0.123
x1 = 0.2392	0.127
x1 = 0.2542	0.131
x1 = 0.2691	0.134
x1 = 0.284	0.136
x1 = 0.299	0.139
x1 = 0.314	0.141
x1 = 0.329	0.143
x1 = 0.344	0.144
x1 = 0.359	0.145
x1 = 0.374	0.146
x1 = 0.389	0.147
x1 = 0.404	0.148
x1 = 0.419	0.148
x1 = 0.434	0.148
x1 = 0.449	0.148
x1 = 0.464	0.147
x1 = 0.479	0.146
x1 = 0.494	0.146
x1 = 0.5091	0.144
x1 = 0.5241	0.143
x1 = 0.5391	0.142
x1 = 0.5541	0.14
x1 = 0.5613	0.14
x1 = 0.5683	0.139
x1 = 0.5692	0.138
x1 = 0.583	0.137
x1 = 0.5842	0.136
x1 = 0.5977	0.135
x1 = 0.5993	0.133
x1 = 0.6122	0.133
x1 = 0.6143	0.131
x1 = 0.6267	0.131
x1 = 0.6411	0.129
x1 = 0.6554	0.126
x1 = 0.6696	0.124
x1 = 0.6838	0.121
x1 = 0.6978	0.118
x1 = 0.7118	0.114
x1 = 0.7257	0.111
x1 = 0.7395	0.107
x1 = 0.7533	0.104
x1 = 0.7669	0.0996
x1 = 0.7805	0.0956
x1 = 0.794	0.0913
x1 = 0.8074	0.0868
x1 = 0.8208	0.0822
x1 = 0.8341	0.0774
x1 = 0.8473	0.0726
x1 = 0.8604	0.0674
x1 = 0.8735	0.0622
x1 = 0.8865	0.0567
x1 = 0.8993	0.0511
x1 = 0.9121	0.0452
x1 = 0.9249	0.0392
x1 = 0.9377	0.0331
x1 = 0.9502	0.0269
x1 = 0.9628	0.0203
x1 = 0.9753	0.0138
x1 = 0.9877	0.00698

c1cc[nH]c1 [pyrrole] + c1ccncc1
mass density [kg/m3], [2]
Settings	298.15 K	308.15 K	318.15 K	328.15 K	338.15 K
x1 = 0.0735	977.37	967.47	957.53	947.53	937.46
x1 = 0.1006	977.04	967.22	957.34	947.41	937.4
x1 = 0.1428	976.57	966.85	957.07	947.23	937.32
x1 = 0.1978	975.9	966.3	956.66	946.95	937.15
x1 = 0.2273	975.56	966.03	956.45	946.8	937.07
x1 = 0.3021	974.44	965.06	955.63	946.12	936.52
x1 = 0.3704	973.5	964.22	954.89	945.49	936.01
x1 = 0.4409	972.25	963.08	953.85	944.54	935.14
x1 = 0.5426	970.64	961.59	952.47	943.27	933.99
x1 = 0.6168	969.44	960.46	951.41	942.28	933.06
x1 = 0.682	968.6	959.68	950.68	941.6	932.43
x1 = 0.7554	967.69	958.82	949.87	940.85	931.72
x1 = 0.8374	966.69	957.88	948.98	939.99	930.91
x1 = 0.9063	966.15	957.38	948.53	939.58	930.54
x1 = 0.9591	965.77	957.04	948.21	939.3	930.28
x1 = 1	965.54	956.83	948.03	939.14	930.13

[1]
Settings	excess molar enthalpy [kcal/mol]
x1 = 0.03	-0.0466
x1 = 0.06	-0.106
x1 = 0.0898	-0.164
x1 = 0.1197	-0.22
x1 = 0.1497	-0.274
x1 = 0.1797	-0.326
x1 = 0.2096	-0.375
x1 = 0.2395	-0.422
x1 = 0.2695	-0.466
x1 = 0.2994	-0.505
x1 = 0.3295	-0.541
x1 = 0.3594	-0.572
x1 = 0.3895	-0.597
x1 = 0.4195	-0.616
x1 = 0.4495	-0.629
x1 = 0.4795	-0.634
x1 = 0.4832	-0.637
x1 = 0.4902	-0.637
x1 = 0.5095	-0.633
x1 = 0.5202	-0.633
x1 = 0.5396	-0.625
x1 = 0.5502	-0.622
x1 = 0.5696	-0.61
x1 = 0.5802	-0.604
x1 = 0.5906	-0.595
x1 = 0.6102	-0.58
x1 = 0.6402	-0.551
x1 = 0.6702	-0.517
x1 = 0.7002	-0.479
x1 = 0.7302	-0.437
x1 = 0.7602	-0.393
x1 = 0.7901	-0.347
x1 = 0.8201	-0.298
x1 = 0.8501	-0.249
x1 = 0.8801	-0.198
x1 = 0.9101	-0.147
x1 = 0.9401	-0.0953
x1 = 0.9701	-0.0432
